Converted amounts (≈) assume the structure as drawn. Like-named read-outs stand apart in the source and are kept apart here.
Experiments:
[1] = Isothermal titration calorimetry; type: binding; settings: PC SUVs, 15% ergosterol, 25°C
Description: ITC experiments were performed using a Microcal VP-ITC Calorimeter (Microcal, Northampton, MA, USA). SUVs, B4010, and polyene antifungals were dissolved in 10 mM HEPES buffered saline at pH 7.2. […] A total of 40 injections were performed and the heat of reaction produced by each injection was determined by integration of heat flow traces. In a separate experiment, the heat of dilution was determined by titrating SUVs into the buffer solution (without peptide). The heat of dilution was subtracted from the heat changes determined in the peptide/antifungal-liposome experiments.

[2] = system: C. albicans DF2672R; assay: Time-kill kinetics assay; type: cell-based
Description: (§1) The time-kill kinetics of B4010 was determined against two strains of C. albicans (ATCC 10231 and DF2672R). The cultures were grown overnight in SD broth and the cell concentration was adjusted to 10^5–10^6 CFU/mL with phosphate buffer. The peptide or antifungals were added to the individual cultures. […] The test solution was incubated at 37°C with constant shaking. 100 µL of the suspension was withdrawn at predetermined time points, serially diluted (10^2 or 10^3 fold) and poured into the SDA plate. The plate was incubated for 48 h at 37°C for colony counting. The data were expressed in terms of % fungal viability relative to the positive control.

[3] = system: C. albicans DF2672R; assay: microbe, parasite or virus in culture; type: cell-based; settings: Candida albicans
Description: (§2) The yeast strains were cultivated and suspended in Sabouraud’s Dextrose (SD) broth diluted to one sixth at a starting OD600 = ∼0.08 in a flat-bottomed microtitre plate. A serial dilution of peptide in the same broth was mixed with the inoculum to give a final peptide concentration of 0.4–22 µM. The antifungal activity was assessed by monitoring the OD600 in cycles of 30 minutes and an orbital shaking at 100 rpm using an Infinite M200 microplate reader (Tecan Group Ltd., Switzerland) for 24/48 h at 37°C. Cultures without peptides were used as positive controls and broth alone or with 22 µM peptide served as negative controls. The minimum concentration required for complete inhibition was assessed by both visible observations as well as by measuring the OD600 and taken as the MIC. Each experiment was repeated in triplicates. For studying the effects of metal ions, SD broth was adjusted with appropriate concentrations of salts to yield a final concentration of 100 and 135 mM for NaCl and KCl and 0.5–2 mM for CaCl2 and MgCl2. MIC determinations were carried out as described above. C. albicans ATCC10231 cells and salts in broth were taken as a positive control. Salts alone (NaCl, KCl, and CaCl2 and MgCl2) in broth or with 22 µM peptide served as a negative control. The effect of 5% human serum on the activities of B4010 against two C. albicans clinical isolates was determined. The human male serum was centrifuged at 13,000 rpm for 10 mins in order to remove the lipids and the supernatant was collected. The MIC values against clinical isolates of C. albicans 2672R and C. albicans 1976R were determined both in standard medium (SD broth) as well as in standard medium containing 5% serum supernatant as before.

[4] = system: C. albicans ATCC10231; assay: microbe, parasite or virus in culture; type: cell-based; settings: Candida albicans
Description: as §2

[5] = system: C. albicans ATCC2091; assay: microbe, parasite or virus in culture; type: cell-based; settings: Candida albicans
Description: as §2

[6] = system: C. albicans DF1976R; assay: microbe, parasite or virus in culture; type: cell-based; settings: Candida albicans
Description: as §2

[7] = system: C. albicans ATCC24433; assay: microbe, parasite or virus in culture; type: cell-based; settings: Candida albicans
Description: as §2

[8] = system: clinical isolates of C. albicans 2672R and C. albicans 1976R; assay: MIC against two clinical isolates, with or without 5% human serum; type: cell-based; settings: Candida albicans; standard medium without serum
Description: as §2

[9] = system: human conjunctival epithelial cells (IOBA-NHC); assay: cells; type: cell-based; settings: Homo sapiens, Epithelial cell, 24 h, 24 h exposure; read-out: EC50 (effective concentration required to kill 50% of human conjunctival epithelial cells)
Description: Immortalized normal human conjunctival epithelial cells (IOBANHC) were a gift from Yolanda Diebold at the University of Valladolid, Spain [31]. IOBA-NHC cells were cultured under standard conditions (humidified atmosphere of 5% CO2 at 37°C) in DMEM/F12 supplemented with 1 µg/ml bovine pancreas insulin, 2 ng/ml mouse epidermal growth factor, 0.1 µg/ml cholera toxin, 5 µg/ml hydrocortisone, 10% fetal bovine serum (FBS), 50 UI/ml penicillin, and 50 UI/ml streptomycin. Cells from passages 50–80 were used in all experiments. Every day, normal culture development was observed by phase-contrast microscopy. Cells were removed by gentle trypsin incubation at confluence and counted. They were seeded into 96 well culture plates (Corning, Schiphol-Rijk, The Netherlands) for microtitration analysis of flow cytotoxicity assay (∼10,000 cells/well). Cultures were kept at 37°C for 24 h. Subconfluent cells (culture surface covering nearly 70%) were then exposed to various peptide concentrations (0.22–225 µM). Cytotoxicity was measured periodically using MultiTox-Fluor Multiplex assay kit (Promega, WI, USA) by measuring the AFC fluorescence (λex = 485 and λem = 520 nm). We report the cell viability after 24 h incubation of the cells with the peptides since there was no detectable toxicity even after 8 h of incubation.

[10] = system: rabbit red blood cells; assay: Haemolytic assay; type: cell-based; settings: 4% rabbit erythrocytes, 1 h
Description: Haemolytic activity of peptides and antifungal drugs were determined against rabbit red blood cells. Briefly, serial dilution of peptides/antifungals in PBS was mixed with rRBC (final concentration 4% v/v), incubated at 37°C for 1 h and centrifuged at 3000 rpm for 10 minutes. The release of hemoglobin in the supernatant was monitored by measuring the hemoglobin absorbance at 576 nm. The readings from cell suspension in PBS (without any additives) or 1% Triton-X100 were used as 0% or 100% haemolysis.

[11] = type: biochemical
Description: Small unilamellar vesicles (SUVs) were prepared using PC/PE/PI or PS lipids (5∶2.5∶2.5) containing 15 wt% ergosterol or PC/Cholesterol (10∶1). For the preparation of PC/PE/PI or PS/Erg SUV, the lipids were dissolved in chloroform/methanol (2∶1, v/v) in a glass tube. Ergosterol was dissolved in same solvent and added to lipid mixture to make final ergosterol content of 15 wt%. The Lipid-ergosterol mixture was dried using nitrogen gas to form lipid layer. The film was hydrated in a buffer containing 20 mM PBS (pH 7), vortexed and sonicated. Each cycle of sonication (5 sec, 40°C) was followed by freezing in liquid nitrogen and thawing on a water bath kept at 37°C. The procedure was repeated 5–6 times until an optically clear dispersion appeared. The SUV was divided into two parts. To the first part 50 mM calcein was added and incubated for 1 h. The excess calcein was removed by injecting 100 µL of the calcien-loaded SUV’s into a Ultrahydrogel™ 250 (7.8 mm × 300 mm) column equilibrated with 20 mM PBS (pH 7.0) and eluted isochratically at a flow rate of 1 mL/min for 1.5 column volumes. The calcein-loaded liposomes were mixed with calcein-free liposome (1∶1) to adjust final liposome concentration. Peptide concentration was added to obtain 1∶30 or 1∶15 peptide:liposome ratio. Changes in the fluorescence signal after addition of peptide or Triton X-100 was measured on a PTI spectrofluorometer, using an excitation wavelength of 480 nm and emission wavelength of 512 nm. The Percentage calcein released at each time point was calculated using the equation, [drawing 1]
Where A0 is the observed fluorescence intensity upon addition of peptides, Amin is the average intensity at the baseline (before peptide addition), Amax is the average intensity at the saturation phase after adding 1% Triton X-100. Similar protocol was followed for the preparation of PC/Cholesterol SUVs.

[12] = system: C. albicans ATCC 10231; assay: Time-kill kinetics assay; type: cell-based; settings: 16× MIC
Description: as §1

[13] = system: F. solani ATCC36031; assay: microbe, parasite or virus in culture; type: cell-based; settings: Fusarium solani; F. solani ATCC36031
[14] = system: F. solani DM3782; assay: microbe, parasite or virus in culture; type: cell-based; settings: Fusarium solani; F. solani DM3782
[15] = system: F. solani DF1500; assay: microbe, parasite or virus in culture; type: cell-based; settings: Fusarium solani; F. solani DF1500
[16] = DF2672R, Table 3, read-out: MIC in µM against Ca 2672R
[17] = ATCC10231, Table 3, read-out: MIC in µM against Ca 10231
[18] = ATCC2091, Table 3, read-out: MIC in µM against Ca 2091
[19] = DF1976R, Table 3, read-out: MIC in µM against Ca DF1976R
[20] = ATCC24433, Table 3, read-out: MIC in µM against Ca 24433

Structure (SMILES)	MIC [3, 16] [µM]	MIC [4, 17] [µM]	MIC [5, 18] [µM]	MIC [6, 19] [µM]	MIC [7, 20] [µM]	MIC [8] [µM]	EC50 [9] [µM]	HC50 [10] [µM]	% Calcein released from PC/PE/PS/Erg [11] [%]	further results
C[C@@H]1[C@H](O)[C@@H](C)/C=C/C=C/C=C/C=C/C=C/C=C/C=C/[C@H](O[C@@H]2O[C@H](C)[C@@H](O)[C@H](N)[C@@H]2O)C[C@@H]2O[C@](O)(C[C@@H](O)C[C@@H](O)[C@H](O)CC[C@@H](O)C[C@@H](O)CC(=O)O[C@H]1C)C[C@H](O)[C@H]2C(=O)O [Amphotericin B, reference compound]	1.35 (≈ 1.25 µg/mL)	1.35 (≈ 1.25 µg/mL)	< 0.4	1.35 (≈ 1.25 µg/mL)	1.35 (≈ 1.25 µg/mL)	1.4 (≈ 1.29 µg/mL)	134 ± 16	59.4 ± 7.8	0	affinity for membrane bound ergosterol (ITC) [1]: strong affinity; time to maximal effect ([2]; 16× MIC): less than 8 h
C[C@@H]1C/C=C/C=C/C=C/C=C/[C@H](O[C@@H]2O[C@H](C)[C@@H](O)[C@H](N)[C@@H]2O)C[C@@H]2O[C@](O)(C[C@@H](O)C[C@H]3O[C@@H]3/C=C/C(=O)O1)C[C@H](O)[C@H]2C(=O)O [Natamycin, reference compound]	15 (≈ 9.99 µg/mL)	15 (≈ 9.99 µg/mL)	7.5 (≈ 4.99 µg/mL)	15 (≈ 9.99 µg/mL)	15 (≈ 9.99 µg/mL)	15 (≈ 9.99 µg/mL)	212 ± 20.5	139.6 ± 0.18	0	time required to achieve similar endpoints (4 log reduction) [12]: 24 h; fungicidal action ([2]; 2× MIC, 24 h exposure): no fungicidal action; MIC [13]: 4.7 µM (≈ 3.13 µg/mL); MIC [14]: 2.4 µM (≈ 1.6 µg/mL); MIC ([3]; C. albicans DF2672R, read-out: MIC): 15 µM (≈ 9.99 µg/mL); MIC ([4]; C. albicans ATCC10231, read-out: MIC): 15 µM (≈ 9.99 µg/mL); MIC ([5]; C. albicans ATCC2091, read-out: MIC): 7.5 µM (≈ 4.99 µg/mL); MIC ([6]; C. albicans DF1976R, read-out: MIC): 15 µM (≈ 9.99 µg/mL); MIC ([7]; C. albicans ATCC24433, read-out: MIC): 15 µM (≈ 9.99 µg/mL); MIC [15]: 2.4 µM (≈ 1.6 µg/mL)

Reference: article PMC3912015, “Synthetic Multivalent Antifungal Peptides Effective against Fungi” (PLoS ONE, 2014)
